Read-outs that look alike come from different tables or passages of the source.
Tests used:
SK-BR-3 cells = assay: Growth inhibitory activity against HER2 expressing cell line SK-BR-3; format: cell-based; details: Homo sapiens, SK-BR-3, 72 h; 3 days, CellTiter-Glo 2.0
Description: SK-BR-3 cells as a HER2 overexpressing human breast cancer cell line were suspended in a McCoy's 5a medium (manufactured by Life Technologies) supplemented with 10% fetal bovine serum. The cell suspension was seeded in each well of a 384-well flat-bottom microplate, and was then cultured in a 5% carbon dioxide gas-containing culture vessel at 37° C. for 1 day. Thereafter, the compound of the present invention was dissolved in DMSO, and the compound was diluted to 500 times the final concentration in DMSO. The compound in the DMSO solution was diluted with DMSO solution or the medium used in the suspension of the cells, and the obtained solution was then added to each well of the culture plate so that the final concentration of DMSO was 0.2%. The obtained mixture was further cultured in the 5% carbon dioxide gas-containing culture vessel at 37° C. for 3 days. After completion of the culture for 3 days in the presence of the compound, the cells were counted using CellTiter-Glo 2.0 (manufactured by Promega), and the growth inhibition percentage was then calculated according to the following equation. […] Growth inhibitory percentage (%)=(C−T)/(C)×100 T: Emission intensity from the well to which the test compound was added C: Emission intensity from the well to which the test compound was not added

[1] = Evaluation of oral absorbability; format: in vivo, BALB/cA mice; details: mouse; plasma, oral 50 mg/kg/day, BALB/cA mice
Description: The compound of the present invention was suspended or dissolved in 0.5% HPMC aqueous solution and 0.1 N hydrochloric acid, and the obtained suspension or solution was orally administered to BALB/cA mice (CLEA Japan, Inc.) at a dose of 50 mg/kg/day. At 0.5, 1, 2, 4 and 6 hours after completion of the oral administration, blood was collected from the facial vein over time, so as to obtain plasma. The concentration of the compound in the obtained plasma was measured by LC-MS/MS, and the oral absorbability of the present compound was evaluated.

[2] = molecular target: HER2 exon 20 insertion mutant (HER2ex20insYVMA, A775_G776insYVMA) (Homo sapiens, UniProt P04626, DUP772-775); assay: Inhibitory action (in vitro) against HER2 exon 20 insertion mutant phosphorylation activity; format: biochemical; details: 30 min pre-incubation, ATP 200 μM, 25° C. 220 minutes
Excerpt: In order to determine conditions for a method of measuring the in vitro inhibitory activity of a compound against HER2 exon 20 insertion mutant phosphorylation activity, as in the case of HER2, ProfilerPro Peptide 22 was used as a substrate. A purified recombinant human HER2 exon 20 insertion mutant (A775_G776insYVMA) protein is shown in SEQ ID NO: 7, and was purchased from SignalChem. Upon the measurement of the inhibitory activity of the compound, first, the compound of the present invention was diluted stepwise with dimethyl sulfoxide (DMSO). Subsequently, the HER2 exon 20 insertion mutant protein and the compound of the present invention in DMSO solution (final concentration of DMSO: 5%) were added into a buffer for the kinase reaction (13.5 mM Tris (pH 7.5), 2 mM dithiothreitol, and 0.009% Tween 20), and the obtained mixture was then pre-incubated at 25° C. for 30 minutes. Thereafter, the substrate peptide (final concentration: 1 μM), manganese chloride (final concentration: 25 mM), magnesium chloride (final concentration: 20 mM), and ATP (final concentration: 200 μM) were added into the reaction mixture, and the thus obtained mixture was then incubated at 25° C. for 220 minutes, so that the kinase reaction was carried out. To the reaction solution, EDTA was added to a final concentration of 30 mM, so as to terminate the reaction. Finally, using LabChip (registered trademark) EZ Reader II (PerkinElmer), an unphosphorylated substrate peptide (S) and a phosphorylated peptide (P) were separated and detected according to microchannel capillary electrophoresis.

Ba/F3-HER2insYVMA cells = Ba/F3-HER2insYVMA cells (Homo sapiens, UniProt P04626, DUP772-775, cells depend on it); assay: Growth inhibitory activity against HER2 exon 20 insertion mutant expressing cell line; format: cell-based, mouse; details: 3 days, CellTiter-Glo 2.0, read-out: HER2ex20insYVMA cell growth inhibitory activity IC50 value
Description: Growth inhibitory activity against the HER2 exon 20 insertion mutant was measured using Ba/F3 cells that were a mouse B lymphocyte precursor cell line, into which a human HER2 exon 20 insertion mutant gene had been introduced. The Ba/F3 cells were maintained in an RPMI-1640 medium (Thermo Fisher Scientific) supplemented with 10% fetal bovine serum (FBS), 100 U/mL penicillin, 100 μg/mL streptomycin (Thermo Fisher Scientific) and 1 ng/mL mouse interleukin-3 (mIL-3) (CST).
Upon evaluation of cell growth inhibitory activity, the Ba/F3-HER2insYVMA cells were suspended in an RPMI-1640 medium supplemented with 10% FBS, 100 U/mL penicillin, and 100 μg/mL streptomycin. The cell suspension was seeded in each well of a 96-well flat-bottom microplate, and was then cultured in a 5% carbon dioxide gas-containing culture vessel at 37° C. for 1 day. The compound of the present invention was dissolved in DMSO, and was then diluted with DMSO or the medium used in the suspension of the cells. The obtained solution was then added to each well of the culture plate, so that the final concentration of DMSO became 0.2%. The obtained mixture was further cultured in the 5% carbon dioxide gas-containing culture vessel at 37° C. for 3 days. After completion of the culture for 3 days in the presence of the compound, the cells were counted using CellTiter-Glo 2.0 (manufactured by Promega), and the growth inhibition percentage was then calculated according to the following equation. […] Growth inhibitory percentage (%)=(C−T)/(C)×100 T: Emission intensity from the well to which the test compound was added C: Emission intensity from the well to which the test compound was not added

HER2 = molecular target: T1, HER2 (Homo sapiens, UniProt P04626); assay: Inhibitory effect (in vitro) on HER2 phosphorylation activity; format: biochemical; details: recombinant human HER2, ATP 5 μM, 25° C. 30 minutes
T1 construct: purchased Carna Biosciences, Inc
Excerpt: In order to determine conditions for a method of measuring the in vitro inhibitory activity of a compound against HER2 phosphorylation activity, based on the report regarding a HER2 kinase reaction using, as a substrate, a peptide having the same sequence (5-FAM-[…]-CONH2) as that of ProfilerPro Peptide 22 of PerkinElmer (Xie H et al., PLoS One. 2011; 6(7): e21487), ProfilerPro Peptide 22 was used as a substrate. A purified recombinant human HER2 protein used in the present test was purchased from Carna Biosciences, Inc. Upon the measurement of the inhibitory activity of the compound, first, the compound of the present invention was diluted stepwise with dimethyl sulfoxide (DMSO). […] To the reaction solution, EDTA was added to a final concentration of 30 mM, so as to terminate the reaction. Finally, using LabChip (registered trademark) EZ Reader II (PerkinElmer), an unphosphorylated substrate peptide (S) and a phosphorylated peptide (P) were separated and detected according to microchannel capillary electrophoresis.

[3] = Evaluation of brain penetration properties; format: in vivo, BALB/cA mice; details: mouse, 0.5 hours after oral 50 mg/kg/day, BALB/cA mice; for Kp at 0.5 h: read-out: Kp value (Compound concentration in brain/plasma)
[4] = brain, read-out: Compound concentration in brain
[5] = plasma, read-out: Compound concentration in plasma

T1 sequence (P04626 23-1255): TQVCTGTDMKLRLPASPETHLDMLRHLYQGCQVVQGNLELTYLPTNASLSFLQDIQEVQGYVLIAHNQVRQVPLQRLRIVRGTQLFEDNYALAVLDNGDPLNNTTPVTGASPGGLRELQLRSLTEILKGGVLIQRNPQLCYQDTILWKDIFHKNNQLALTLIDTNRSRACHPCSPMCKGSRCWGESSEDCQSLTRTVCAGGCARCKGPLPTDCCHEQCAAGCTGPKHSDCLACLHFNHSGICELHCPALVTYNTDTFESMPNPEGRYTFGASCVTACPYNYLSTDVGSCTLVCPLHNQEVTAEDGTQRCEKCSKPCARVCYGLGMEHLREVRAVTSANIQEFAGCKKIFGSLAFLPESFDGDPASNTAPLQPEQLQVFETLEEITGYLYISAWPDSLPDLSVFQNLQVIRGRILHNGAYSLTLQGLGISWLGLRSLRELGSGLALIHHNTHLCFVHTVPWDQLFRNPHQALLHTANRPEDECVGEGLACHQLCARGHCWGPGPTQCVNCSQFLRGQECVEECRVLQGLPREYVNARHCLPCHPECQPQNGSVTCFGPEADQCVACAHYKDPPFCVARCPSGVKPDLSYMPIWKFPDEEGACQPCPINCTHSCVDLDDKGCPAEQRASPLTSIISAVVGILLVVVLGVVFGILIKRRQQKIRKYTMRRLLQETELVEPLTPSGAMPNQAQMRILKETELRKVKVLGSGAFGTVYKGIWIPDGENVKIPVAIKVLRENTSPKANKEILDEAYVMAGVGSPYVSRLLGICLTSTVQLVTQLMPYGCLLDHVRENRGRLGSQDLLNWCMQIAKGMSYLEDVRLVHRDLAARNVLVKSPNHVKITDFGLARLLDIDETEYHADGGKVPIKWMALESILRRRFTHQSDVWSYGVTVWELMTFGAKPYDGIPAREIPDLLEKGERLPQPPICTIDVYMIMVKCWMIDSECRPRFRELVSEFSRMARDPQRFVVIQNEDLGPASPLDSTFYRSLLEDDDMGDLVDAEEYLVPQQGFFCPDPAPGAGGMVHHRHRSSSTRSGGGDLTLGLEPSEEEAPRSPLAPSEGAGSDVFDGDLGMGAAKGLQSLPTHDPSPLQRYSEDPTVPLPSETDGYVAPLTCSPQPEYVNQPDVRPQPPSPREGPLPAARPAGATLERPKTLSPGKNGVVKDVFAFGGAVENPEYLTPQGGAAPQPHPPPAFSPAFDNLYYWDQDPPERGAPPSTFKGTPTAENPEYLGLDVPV
Sequence of HER2 exon 20 insertion mutant (HER2ex20insYVMA, A775_G776insYVMA) (P04626 with tags, fused parts or gaps DUP772-775): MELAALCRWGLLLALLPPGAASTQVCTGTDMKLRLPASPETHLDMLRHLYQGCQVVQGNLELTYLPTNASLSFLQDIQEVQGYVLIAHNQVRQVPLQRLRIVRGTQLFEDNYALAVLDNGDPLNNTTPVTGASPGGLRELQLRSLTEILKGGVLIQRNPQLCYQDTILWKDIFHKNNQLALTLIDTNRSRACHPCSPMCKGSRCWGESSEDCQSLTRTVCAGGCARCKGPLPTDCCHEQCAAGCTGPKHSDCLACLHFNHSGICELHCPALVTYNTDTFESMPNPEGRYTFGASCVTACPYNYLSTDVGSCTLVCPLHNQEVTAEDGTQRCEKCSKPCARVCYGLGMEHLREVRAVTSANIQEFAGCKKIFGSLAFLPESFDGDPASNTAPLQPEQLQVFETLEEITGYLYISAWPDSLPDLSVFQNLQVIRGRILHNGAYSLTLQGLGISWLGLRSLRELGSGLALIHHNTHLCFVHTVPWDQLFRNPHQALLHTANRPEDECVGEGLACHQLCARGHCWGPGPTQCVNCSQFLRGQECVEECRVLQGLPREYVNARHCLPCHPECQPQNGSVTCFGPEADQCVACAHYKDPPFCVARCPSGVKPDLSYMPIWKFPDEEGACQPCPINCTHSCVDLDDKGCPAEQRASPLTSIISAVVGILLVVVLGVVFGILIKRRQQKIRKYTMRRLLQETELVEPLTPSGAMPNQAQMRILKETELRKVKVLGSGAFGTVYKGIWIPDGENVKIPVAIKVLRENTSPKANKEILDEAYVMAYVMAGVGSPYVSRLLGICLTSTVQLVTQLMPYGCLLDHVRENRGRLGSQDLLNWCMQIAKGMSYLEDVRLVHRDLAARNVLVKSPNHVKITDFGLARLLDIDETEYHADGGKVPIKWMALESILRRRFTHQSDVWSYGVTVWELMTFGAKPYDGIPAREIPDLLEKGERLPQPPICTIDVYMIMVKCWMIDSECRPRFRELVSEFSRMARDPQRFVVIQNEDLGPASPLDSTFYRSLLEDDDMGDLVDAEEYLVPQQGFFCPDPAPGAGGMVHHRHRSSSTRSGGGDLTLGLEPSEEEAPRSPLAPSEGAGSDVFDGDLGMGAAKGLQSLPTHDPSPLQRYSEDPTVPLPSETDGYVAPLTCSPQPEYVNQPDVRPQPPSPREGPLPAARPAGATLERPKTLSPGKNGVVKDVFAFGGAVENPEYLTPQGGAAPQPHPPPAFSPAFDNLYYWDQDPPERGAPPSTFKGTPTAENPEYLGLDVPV
Sequence of Ba/F3-HER2insYVMA cells (P04626 with tags, fused parts or gaps DUP772-775): as above

Compound | IC50 (SK-BR-3 cells) [nM] | AUC(0-t) [1] [µM·h] | IC50 [2] [nM] | GI50 (Ba/F3-HER2insYVMA cells) [nM] | IC50 (HER2) [nM] | concentration at 0.5 h [3, 4] [µM] | Kp at 0.5 h ([3]; brain) | concentration at 0.5 h [3, 5] [µM]
C=CC(=O)N1C[C@H](n2c(C#CC)c(C(=O)N[C@H](C)c3cc(F)cc(F)c3)c3c(N)ncnc32)C[C@@H]1C [Example 1, 7-(R)-((3R,5S)-1-acryloyl-5-methylpyrrolidin-3-yl)-4-amino-N—((R)-1-(3,5-difluorophenyl)ethyl)-6-(prop-1-yn-1-yl)-7H-pyrrolo[2,3-d]pyrimidine-5-carboxamide] | 9.3 | 50 | 0.34 | 17 | 2.7 | 1.4 | 0.15 | 9.1
C=CC(=O)N1C[C@H](n2c(C#CC)c(C(=O)N[C@H](C)c3ccccc3)c3c(N)ncnc32)C[C@@H]1C [Example 2, 7-((3R,5S)-1-acryloyl-5-methylpyrrolidin-3-yl)-4-amino-N—((R)-1-phenylethyl)-6-(prop-1-yn-1-yl)-7H-pyrrolo[2,3-d]pyrimidine-5-carboxamide] | 2.8 | 15 | < 0.3 | 12 | 2.5 | 1.8 | 0.27 | 6.6
C=CC(=O)N1C[C@H](n2c(C#CC)c(C(=O)NC(C)(C)c3ccccc3)c3c(N)ncnc32)C[C@@H]1C [Example 3, 7-((3R,5S)-1-acryloyl-5-methylpyrrolidin-3-yl)-4-amino-N-(2-phenylpropan-2-yl)-6-(prop-1-yn-1-yl)-7H-pyrrolo[2,3-d]pyrimidine-5-carboxamide] | 4.5 | 24 | < 0.3 | 25 | 5.8 | 1.4 | 0.13 | 11
C=CC(=O)N1C[C@H](n2c(C#CC)c(C(=O)N[C@H](CC)c3ccccc3)c3c(N)ncnc32)C[C@@H]1C [Example 4, 7-((3R,5S)-1-acryloyl-5-methylpyrrolidin-3-yl)-4-amino-N—((R)-1-phenylpropyl)-6-(prop-1-yn-1-yl)-7H-pyrrolo[2,3-d]pyrimidine-5-carboxamide] | 5.6 | 12 | 0.37 | 20 | 3.9 | 2.8 | 0.34 | 8.3
C=CC(=O)N1C[C@H](n2c(C#CC)c(C(=O)NC(C)(C)c3ccccc3F)c3c(N)ncnc32)C[C@@H]1C [Example 5, 7-((3R,5S)-1-acryloyl-5-methylpyrrolidin-3-yl)-4-amino-N-(2-(2-fluorophenyl)propan-2-yl)-6-(prop-1-yn-1-yl)-7H-pyrrolo[2,3-d]pyrimidine-5-carboxamide] | 4 | 20 | 0.38 | 14 | 7.7 | 2.2 | 0.15 | 15
C=CC(=O)N1C[C@H](n2c(C#CC)c(C(=O)N[C@H](C)c3cccc(Cl)c3)c3c(N)ncnc32)C[C@@H]1C [Example 6, 7-((3R,5S)-1-acryloyl-5-methylpyrrolidin-3-yl)-4-amino-N—((R)-1-(3-chlorophenyl)ethyl)-6-(prop-1-yn-1-yl)-7H-pyrrolo[2,3-d]pyrimidine-5-carboxamide] | 10 | 17 | < 0.3 | 28 | 2.8 | 1.3 | 0.17 | 7.5
C=CC(=O)N1C[C@H](n2c(C#CC)c(C(=O)N[C@@H](c3ccccc3)C(F)(F)F)c3c(N)ncnc32)C[C@@H]1C [Example 8, 7-((3R,5S)-1-acryloyl-5-methylpyrrolidin-3-yl)-4-amino-6-(prop-1-yn-1-yl)-N—((S)-2,2,2-trifluoro-1-phenylethyl)-7H-pyrrolo[2,3-d]pyrimidine-5-carboxamide] | 14 | 15 | < 0.3 | 26 | 10 | 3.3 | 0.33 | 9.9
C=CC(=O)N1C[C@H](n2c(C#CC3CC3)c(C(=O)NC(C)(C)c3ccccc3)c3c(N)ncnc32)C[C@@H]1C [Example 9, 7-((3R,5S)-1-acryloyl-5-methylpyrrolidin-3-yl)-4-amino-6-(cyclopropylethynyl)-N-(2-phenylpropan-2-yl)-7H-pyrrolo[2,3-d]pyrimidine-5-carboxamide] | 4.2 | 51 | 0.32 | 24 | 5.6 | 2.4 | 0.18 | 13
C=CC(=O)N1C[C@H](n2c(C#CC3CC3)c(C(=O)N[C@H](C)c3cccc(F)c3F)c3c(N)ncnc32)C[C@@H]1C [Example 10, 7-((3R,5S)-1-acryloyl-5-methylpyrrolidin-3-yl)-4-amino-6-(cyclopropylethynyl)-N—((R)-1-(2,3-difluorophenyl)ethyl)-7H-pyrrolo[2,3-d]pyrimidine-5-carboxamide] | 13 | 50 | < 0.3 | 29 | 2.2 | 2.4 | 0.18 | 13
